The record followed here is ChEMBL document CHEMBL5465560, “Selectivity Literature for EUbOPEN Chemogenomic Library” (2024).

In experiment [1] the target is Interferon-induced, double-stranded RNA-activated protein kinase (Homo sapiens) (UniProt P19525). The experiment can be described thus: Selectivity interaction (KinomeScan (DiscoverX)) EUB0000695a EIF2AK2. As to conditions: at 100 nM.
In experiment [2] the target is Ephrin type-A receptor 7 (Homo sapiens) (UniProt Q15375). The experiment can be described thus: Selectivity interaction (KinomeScan (DiscoverX)) EUB0000607a EPHA7. The following applies: at 10 µM.
Experiment [3] has as its target Macrophage-stimulating protein receptor (Homo sapiens, UniProt Q04912). The experiment is described as follows: Selectivity interaction (Kinase screening (Nanosyn)) EUB0000604a MST1R.
In experiment [4] the target is Serine/threonine-protein kinase 16 (Homo sapiens, UniProt O75716). The experiment is described as follows: Selectivity interaction (ActivX KiNativ screen (kinase selectivity in THP-1 cell lysates)) EUB0000639a STK16. It is filed as subcellular. The following applies: lysate, at 0.2 µM.
Serine/threonine-protein kinase 16, sequence (O75716 whole entry): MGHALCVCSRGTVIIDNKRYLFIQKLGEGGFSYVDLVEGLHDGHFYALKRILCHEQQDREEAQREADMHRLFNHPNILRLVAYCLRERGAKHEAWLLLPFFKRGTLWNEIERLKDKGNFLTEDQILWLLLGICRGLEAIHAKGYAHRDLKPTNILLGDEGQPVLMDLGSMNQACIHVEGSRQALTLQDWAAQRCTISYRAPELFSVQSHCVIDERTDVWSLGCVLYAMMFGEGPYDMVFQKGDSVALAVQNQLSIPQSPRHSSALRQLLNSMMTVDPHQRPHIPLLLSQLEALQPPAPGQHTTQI
The target in experiment [5] is Tyrosine-protein kinase BTK (Homo sapiens, UniProt Q06187). The experiment is described as follows: Selectivity interaction (Ambit KINOMEscan and KiNATiv profiling in Jurkat cells) EUB0000090b BTK. Format: cell-based. As to conditions: at 1 µM.
Tyrosine-protein kinase BTK, sequence (Q06187 whole entry): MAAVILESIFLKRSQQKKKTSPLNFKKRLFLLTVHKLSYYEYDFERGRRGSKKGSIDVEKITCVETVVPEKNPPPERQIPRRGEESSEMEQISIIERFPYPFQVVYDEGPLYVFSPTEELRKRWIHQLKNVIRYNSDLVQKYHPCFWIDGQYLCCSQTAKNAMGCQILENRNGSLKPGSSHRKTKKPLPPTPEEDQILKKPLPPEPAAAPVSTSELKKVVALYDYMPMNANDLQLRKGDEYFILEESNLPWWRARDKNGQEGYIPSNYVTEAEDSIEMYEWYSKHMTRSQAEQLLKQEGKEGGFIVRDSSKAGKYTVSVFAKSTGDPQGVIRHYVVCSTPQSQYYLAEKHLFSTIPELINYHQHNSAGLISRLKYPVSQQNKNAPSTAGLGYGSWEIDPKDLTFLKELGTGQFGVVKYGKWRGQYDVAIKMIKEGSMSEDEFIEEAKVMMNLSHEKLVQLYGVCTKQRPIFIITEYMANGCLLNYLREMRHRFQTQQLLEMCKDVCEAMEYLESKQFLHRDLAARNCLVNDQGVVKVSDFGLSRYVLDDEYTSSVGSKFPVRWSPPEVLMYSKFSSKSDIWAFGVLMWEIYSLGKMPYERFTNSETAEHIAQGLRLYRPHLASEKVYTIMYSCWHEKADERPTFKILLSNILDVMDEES
Experiment [6] concerns T1, Receptor-type tyrosine-protein kinase FLT3 (Homo sapiens), P36888 [K663Q].
T1 sequence (whole entry): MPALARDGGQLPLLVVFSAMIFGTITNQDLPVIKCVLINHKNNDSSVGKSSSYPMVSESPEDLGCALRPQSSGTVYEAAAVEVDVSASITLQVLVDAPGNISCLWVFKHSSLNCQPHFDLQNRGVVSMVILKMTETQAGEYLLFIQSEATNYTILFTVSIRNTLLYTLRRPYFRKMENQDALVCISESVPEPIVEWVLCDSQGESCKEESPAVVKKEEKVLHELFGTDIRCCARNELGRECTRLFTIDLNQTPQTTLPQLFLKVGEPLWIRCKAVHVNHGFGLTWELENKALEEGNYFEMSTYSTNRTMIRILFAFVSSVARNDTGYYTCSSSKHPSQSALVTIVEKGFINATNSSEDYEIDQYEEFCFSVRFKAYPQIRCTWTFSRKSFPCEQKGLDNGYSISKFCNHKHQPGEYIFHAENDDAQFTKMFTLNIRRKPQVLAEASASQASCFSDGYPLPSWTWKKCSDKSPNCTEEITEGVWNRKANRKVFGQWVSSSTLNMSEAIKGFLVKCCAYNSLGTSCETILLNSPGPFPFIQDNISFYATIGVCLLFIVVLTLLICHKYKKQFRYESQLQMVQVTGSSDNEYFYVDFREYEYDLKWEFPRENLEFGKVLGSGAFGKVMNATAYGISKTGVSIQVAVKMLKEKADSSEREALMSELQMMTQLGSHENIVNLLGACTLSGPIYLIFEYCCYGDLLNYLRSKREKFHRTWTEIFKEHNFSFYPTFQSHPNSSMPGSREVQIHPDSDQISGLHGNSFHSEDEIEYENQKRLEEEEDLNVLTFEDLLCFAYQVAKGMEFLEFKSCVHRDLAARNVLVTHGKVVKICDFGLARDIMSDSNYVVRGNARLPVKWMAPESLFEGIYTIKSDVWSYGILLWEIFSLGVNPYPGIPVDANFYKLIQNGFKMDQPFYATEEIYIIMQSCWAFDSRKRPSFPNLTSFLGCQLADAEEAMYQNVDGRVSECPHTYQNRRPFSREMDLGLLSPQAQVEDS
The experiment can be described thus: (§1) Selectivity interaction (KinomeScan (DiscoverX)) EUB0001049a FLT3. The following applies: at 1 µM.

Experiment [7] has as its system T2, Receptor-type tyrosine-protein kinase FLT3 (Homo sapiens), P36888 [N841I].
T2 sequence (whole entry): T1 sequence (whole entry) with Q663K, N841I
Described as §1. The following applies: at 1 µM.

For experiment [8], the target named is Tyrosine-protein kinase receptor Tie-1 (Homo sapiens) (UniProt P35590). The experiment can be described thus: Selectivity interaction (KinomeScan (DiscoverX)) EUB0001868a TIE1. As to conditions: at 1 µM.
Experiment [9] deals with Histone-lysine N-methyltransferase 2A (Homo sapiens) (UniProt Q03164). The experiment can be described thus: Selectivity interaction (Methyltransferase screen (radiometric assays, panel of 8 PRMTs, 21 protein lysine methyltransferases, 3 DNA methyltransferases, and one RNA methyltransferase)) EUB0000272b MLL.
Histone-lysine N-methyltransferase 2A (Homo sapiens), sequence (Q03164 1-2718 limits assumed): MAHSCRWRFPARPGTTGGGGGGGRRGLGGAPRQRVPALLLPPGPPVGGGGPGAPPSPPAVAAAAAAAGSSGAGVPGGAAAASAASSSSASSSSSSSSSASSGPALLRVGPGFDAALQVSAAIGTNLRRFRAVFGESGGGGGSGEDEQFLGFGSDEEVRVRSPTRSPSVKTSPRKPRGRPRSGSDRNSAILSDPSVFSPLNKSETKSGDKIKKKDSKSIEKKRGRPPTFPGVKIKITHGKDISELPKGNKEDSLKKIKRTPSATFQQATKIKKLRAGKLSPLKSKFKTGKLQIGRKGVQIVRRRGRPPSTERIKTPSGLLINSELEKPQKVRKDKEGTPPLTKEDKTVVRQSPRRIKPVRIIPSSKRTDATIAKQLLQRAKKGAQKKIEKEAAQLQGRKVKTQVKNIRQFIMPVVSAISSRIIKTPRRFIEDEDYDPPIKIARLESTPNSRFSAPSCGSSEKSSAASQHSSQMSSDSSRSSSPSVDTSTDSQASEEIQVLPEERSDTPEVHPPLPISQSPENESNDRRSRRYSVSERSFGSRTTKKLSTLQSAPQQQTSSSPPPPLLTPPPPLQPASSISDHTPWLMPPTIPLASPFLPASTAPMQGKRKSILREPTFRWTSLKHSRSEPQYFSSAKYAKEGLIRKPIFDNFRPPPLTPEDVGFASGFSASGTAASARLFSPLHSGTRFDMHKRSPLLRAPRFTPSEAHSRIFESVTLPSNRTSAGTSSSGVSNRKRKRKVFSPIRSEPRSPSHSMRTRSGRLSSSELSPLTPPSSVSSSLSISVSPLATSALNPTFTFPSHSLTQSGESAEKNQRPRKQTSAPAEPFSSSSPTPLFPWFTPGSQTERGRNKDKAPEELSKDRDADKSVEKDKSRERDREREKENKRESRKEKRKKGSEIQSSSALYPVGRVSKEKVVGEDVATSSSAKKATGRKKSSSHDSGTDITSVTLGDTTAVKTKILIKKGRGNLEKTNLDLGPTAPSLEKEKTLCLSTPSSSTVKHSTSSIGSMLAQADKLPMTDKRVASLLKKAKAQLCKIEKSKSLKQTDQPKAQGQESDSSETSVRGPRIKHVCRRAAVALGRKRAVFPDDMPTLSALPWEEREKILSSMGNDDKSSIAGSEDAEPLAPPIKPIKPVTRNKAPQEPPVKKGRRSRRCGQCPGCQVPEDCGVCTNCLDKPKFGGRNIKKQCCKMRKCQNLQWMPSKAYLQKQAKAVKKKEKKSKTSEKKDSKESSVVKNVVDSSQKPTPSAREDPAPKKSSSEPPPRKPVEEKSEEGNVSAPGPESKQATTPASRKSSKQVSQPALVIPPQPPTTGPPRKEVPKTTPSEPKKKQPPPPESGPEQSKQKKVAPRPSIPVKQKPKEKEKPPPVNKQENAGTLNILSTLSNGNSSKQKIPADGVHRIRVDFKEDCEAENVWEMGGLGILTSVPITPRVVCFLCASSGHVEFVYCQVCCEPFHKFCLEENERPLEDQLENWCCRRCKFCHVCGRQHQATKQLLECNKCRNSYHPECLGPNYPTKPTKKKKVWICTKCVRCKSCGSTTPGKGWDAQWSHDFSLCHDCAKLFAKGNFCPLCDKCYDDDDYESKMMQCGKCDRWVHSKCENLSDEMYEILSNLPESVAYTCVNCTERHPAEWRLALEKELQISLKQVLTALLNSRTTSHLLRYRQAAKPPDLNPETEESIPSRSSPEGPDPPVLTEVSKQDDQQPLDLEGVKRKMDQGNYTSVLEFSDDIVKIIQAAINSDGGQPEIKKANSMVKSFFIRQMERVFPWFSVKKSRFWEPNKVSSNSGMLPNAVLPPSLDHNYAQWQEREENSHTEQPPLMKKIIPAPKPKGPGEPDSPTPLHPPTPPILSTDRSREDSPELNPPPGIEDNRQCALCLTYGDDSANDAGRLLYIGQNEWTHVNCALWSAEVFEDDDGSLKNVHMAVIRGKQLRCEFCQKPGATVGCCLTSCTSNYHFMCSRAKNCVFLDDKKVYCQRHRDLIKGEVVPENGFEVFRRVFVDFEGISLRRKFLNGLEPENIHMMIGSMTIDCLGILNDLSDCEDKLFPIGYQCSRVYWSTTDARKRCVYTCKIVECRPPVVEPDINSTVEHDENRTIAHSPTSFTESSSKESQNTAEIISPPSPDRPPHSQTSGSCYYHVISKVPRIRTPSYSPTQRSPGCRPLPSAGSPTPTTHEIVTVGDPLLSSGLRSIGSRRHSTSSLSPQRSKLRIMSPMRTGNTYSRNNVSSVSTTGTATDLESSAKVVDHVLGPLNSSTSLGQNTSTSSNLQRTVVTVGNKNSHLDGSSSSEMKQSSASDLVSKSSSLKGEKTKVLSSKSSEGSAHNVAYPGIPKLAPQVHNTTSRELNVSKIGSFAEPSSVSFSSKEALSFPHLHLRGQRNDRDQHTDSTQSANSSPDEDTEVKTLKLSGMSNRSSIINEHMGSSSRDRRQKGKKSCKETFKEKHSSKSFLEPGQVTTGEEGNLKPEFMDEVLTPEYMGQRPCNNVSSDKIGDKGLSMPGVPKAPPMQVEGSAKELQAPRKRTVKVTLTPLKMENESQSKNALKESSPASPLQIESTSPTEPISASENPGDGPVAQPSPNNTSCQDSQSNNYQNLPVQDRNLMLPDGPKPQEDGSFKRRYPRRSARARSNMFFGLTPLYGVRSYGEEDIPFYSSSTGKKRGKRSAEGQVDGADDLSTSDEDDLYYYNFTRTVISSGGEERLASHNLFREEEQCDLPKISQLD
Histone-lysine N-methyltransferase 2A (Homo sapiens), sequence (Q03164 2719-3969 limits assumed): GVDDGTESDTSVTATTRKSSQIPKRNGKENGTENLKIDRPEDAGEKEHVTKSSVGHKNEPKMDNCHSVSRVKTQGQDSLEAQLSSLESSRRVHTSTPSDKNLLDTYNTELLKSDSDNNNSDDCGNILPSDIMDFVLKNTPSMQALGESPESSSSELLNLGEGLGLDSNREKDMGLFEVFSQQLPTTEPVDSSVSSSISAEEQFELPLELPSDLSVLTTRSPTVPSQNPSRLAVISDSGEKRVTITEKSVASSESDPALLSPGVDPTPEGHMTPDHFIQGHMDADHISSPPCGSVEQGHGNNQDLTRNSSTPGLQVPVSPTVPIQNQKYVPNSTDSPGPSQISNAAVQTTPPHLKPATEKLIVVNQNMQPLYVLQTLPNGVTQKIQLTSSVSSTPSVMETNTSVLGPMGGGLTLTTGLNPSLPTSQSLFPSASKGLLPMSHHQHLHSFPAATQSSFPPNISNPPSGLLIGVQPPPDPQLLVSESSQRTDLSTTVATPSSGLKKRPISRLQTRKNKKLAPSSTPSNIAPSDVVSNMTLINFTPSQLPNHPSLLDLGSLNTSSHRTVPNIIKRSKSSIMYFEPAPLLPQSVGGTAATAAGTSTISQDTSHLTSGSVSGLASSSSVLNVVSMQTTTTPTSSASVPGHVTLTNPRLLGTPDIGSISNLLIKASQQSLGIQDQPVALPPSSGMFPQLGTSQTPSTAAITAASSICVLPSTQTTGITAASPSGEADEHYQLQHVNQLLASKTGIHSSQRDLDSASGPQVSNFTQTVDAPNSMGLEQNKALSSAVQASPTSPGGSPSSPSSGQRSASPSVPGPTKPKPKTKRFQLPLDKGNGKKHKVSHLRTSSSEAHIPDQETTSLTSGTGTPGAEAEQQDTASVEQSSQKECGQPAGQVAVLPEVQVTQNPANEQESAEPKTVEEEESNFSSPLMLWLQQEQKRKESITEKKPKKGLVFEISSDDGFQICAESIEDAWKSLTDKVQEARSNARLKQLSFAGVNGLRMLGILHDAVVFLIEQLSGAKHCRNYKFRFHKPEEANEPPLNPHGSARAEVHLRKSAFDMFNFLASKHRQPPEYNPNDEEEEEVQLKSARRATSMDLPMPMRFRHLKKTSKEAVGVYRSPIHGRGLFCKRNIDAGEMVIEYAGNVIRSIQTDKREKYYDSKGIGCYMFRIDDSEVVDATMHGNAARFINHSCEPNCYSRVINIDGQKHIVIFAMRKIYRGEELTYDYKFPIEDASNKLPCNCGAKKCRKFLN

Positions count from the first letter of the chain named.

Compound `Cc1cc(F)c(C(=O)Nc2cccc(-c3nncn3C(C)C)n2)cc1-n1cnc(C2CC2)c1` gave a % of control in experiment [1] of 100%. In [2], `CNC(=O)Nc1ccc(-c2nc(N3CC4CCC(C3)O4)c3cnn(C4CCC5(CC4)OCCO5)c3n2)cc1` showed a % of control of 87%.

As for `Cc1cnc(Nc2ccc(F)cc2Cl)nc1-c1c[nH]c(C(=O)N[C@H](CO)c2cccc(Cl)c2)c1`, the % of inhibition in experiment [3] was 1%.

In experiment [4], `CC[C@@H]1[C@H](F)C(=O)N[C@@H]1COc1nccc2cc(C(N)=O)c(OC)cc12` [ZIMLOVISERTIB] showed a % of inhibition of 35.1%. On to `CN(C)C/C=C/C(=O)Nc1ccc(C(=O)N2CCCC(Nc3ncc(Cl)c(-c4c[nH]c5ccccc45)n3)C2)cc1` (stereo not given), for which the % of control in [5] was 90%. With `COc1cc(Nc2nc(C)cc(-c3cnn4nc(OC)ccc34)n2)cc(C(F)(F)F)c1`, the values for the % of control in experiment [6] and in [7] were 78% and 100%, respectively.

In turn, `Cc1cc(-c2ccnc(Nc3cnn(C)c3)n2)ccc1CNC(=O)N1CC(OC(C)C)C1` yielded a % of control in experiment [8] of 46%. Consider `Cc1cc(C)cc([C@H]2c3cc(C)ccc3NC(=O)CN2C(=O)c2ccc(Br)s2)c1`, for which the % of activity was 99.3% in experiment [9] (at 1 µM) and 100% in experiment [9] (at 10 µM).
